The assay has as its target T1, CRF1 receptor (Homo sapiens, UniProt P34998).
T1 sequence (P34998 24-415): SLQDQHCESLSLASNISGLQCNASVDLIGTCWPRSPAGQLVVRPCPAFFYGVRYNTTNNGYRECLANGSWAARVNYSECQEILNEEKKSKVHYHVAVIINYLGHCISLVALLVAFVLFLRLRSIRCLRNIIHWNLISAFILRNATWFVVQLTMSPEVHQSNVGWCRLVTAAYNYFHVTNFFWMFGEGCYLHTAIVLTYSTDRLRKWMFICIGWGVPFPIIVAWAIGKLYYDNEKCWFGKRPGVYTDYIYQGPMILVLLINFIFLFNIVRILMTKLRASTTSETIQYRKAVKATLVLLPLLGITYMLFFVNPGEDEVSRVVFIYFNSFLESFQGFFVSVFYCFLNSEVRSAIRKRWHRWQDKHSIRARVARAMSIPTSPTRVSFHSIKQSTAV
Kind of assay: CRF1 receptor antagonist activity: kinetically derived affinity (Ki = k-1/k1), procedures of Fleck et al. In kind it is binding. Particulars: kinetically derived affinity calculated from association (k1) and dissociation (k-1) rate constants; read-out: kinetic Ki. The protocol: As reported in Fleck et al. (J. Pharmacology and Experimental Therapeutics, 341(2):518-531, 2012) (hereinafter “Fleck et al.” and incorporated by reference in it's entirely) the activity of a CRF1 receptor antagonists may be expressed as the kinetically derived affinity (Ki) calculated from the association (k1) and dissociation (k−1) rate constants by the following equation: Ki=k−1/k1
Compound 1 was evaluated according to these procedures, and the kinetic Ki was determined to be 1.14.

Molecules are shown by their SMILES.

We go through one molecule from patent US12383536B2, “CRF receptor antagonists and methods of use” (Neurocrine Biosciences, Inc., priority 2019, dated 2025).

The Ki is the dissociation constant of the complex between target and ligand, obtained from inhibition or displacement. `C#CCN(c1nc(-c2cc(C)c(OC)cc2Cl)c(C)s1)C(CC1CC1)c1ccc(CO)c(F)c1` (racemic) [Compound 1, racemic {4-[1-{[4-(2-chloro-4-methoxy-5-methylphenyl)-5-methyl-1,3-thiazol-2-yl](prop-2-yn-1-yl)amino}-2-cyclopropylethyl]-2-fluorophenyl}methanol]: the Ki is 1.14 nM.
